Columns and labels:
[1] = biological target: T1, GSPT1-HiBiT protein in GSPT1-HiBiT HEK293 cells (Homo sapiens, UniProt P15170+Q96SW2); assay: GSPT1 degradation assay using HiBiT system (Nano-Glo HiBiT lytic assay); type: cell-based; settings: 6 hours treatment; for DC50: read-out: HiBiT lytic assay Geomean absolute DC50
T1 construct: endogenous in cells; host or cells: HEK293 (CRISPR/Cas9 knock-in of HiBiT at the GSPT1 locus)
Text: The effect of selected compounds of the invention on GSPT1 protein levels was investigated, using the GSPT1-HiBiT HEK293 cell line and the Nano-Glo HiBiT degradation assay protocol below.
GSPT1-HiBiT HEK293 cells were generated in-house using the HEK293 parental cells (ATCC, cat. no 70016364) and the CRISPR/Cas9 system. HEK293 cells were transformed with pSpCas9-BB-2A-Puro v2.0 plasmid carrying gRNA targeting the C-terminus of GSPT1 and ssODN template containing the HiBiT tag sequence with flanking homology sequences. Neon Transfection System (Thermo Fisher Scientific) was used for electroporation. HEK293 GSPT1-HiBiT cells were cultured with DMEM Glutamax (Gibco) supplemented with 10% heat inactivated FBS (Gibco). After transfection the culture medium was changed to DMEM Glutamax with 10% heat-inactivated FBS and 1% Penicillin-Streptomycin (Biowest) supplemented with Puromycin (2 μg/ml; Invivogen) for clonal selection. In order to isolate single cell clones for further validation and analysis, limiting dilution cloning in 96-well plates was performed. When the single clones reached confluency, HiBiT Lytic Assay (Promega) was performed in order to identify HiBiT positive clones. The clone selected for further studies was verified and validated using genotyping and HiBiT Blotting (Promega).
Cells were maintained in DMEM Glutamax medium, supplemented with 1% penicillin/streptomycin and 10% Fetal Bovine Serum (FBS) at 37° C., 5% CO2. Compounds were stored frozen as 20 mM DMSO stocks.
For the Nano-Glo HiBiT assay, cells were seeded onto 384-well white solid bottom plate at 2×10^3 cells/well in 40 μL using the Agilent BioTek MultiFlo FX Multimode Dispenser and incubated overnight. Following overnight incubation (37° C., 5% CO2) cells were treated with the test compounds and vehicle only (DMSO) control using the Echo 555 Liquid Handler. Twelve data-point compound titration curve with concentrations ranging from 10 μM to 0.03 nM was used. Final DMSO concentration was kept constant at 0.25% v/v across the assay plate. After 6 hours of incubation (37° C., 5% CO2), plates were removed from the incubator and let to equilibrate to RT. Luminescent signal detection was conducted using the Nano-Glo HiBiT Lytic Detection System (Promega, cat. nr N3050). Nano-Glo HiBiT Lytic Reagent was prepared freshly by diluting the LgBiT Protein (1:100 vol/vol) and the Nano-Glo HiBiT Lytic Substrate (1:50 vol/vol) in the relevant volume of the Nano-Glo HiBiT Lytic Buffer. 40 μL of the HiBiT Lytic Reagent was added per well, plates were shaken to facilitate lysis (350 rpm, 5 min, RT) and incubated in the dark for the following 10 min. Luminescence was read using the PHERAstar multimode plate reader (BMG LABTECH). The raw data (the relative luminescence unit values, RLU) were uploaded under the relevant protocol and analysed in CDDVault data management platform. Luminescence (RLU) values were normalized to the controls, and reported absolute DC50 values and Dmax values were calculated in CDDVault using non-linear regression and appropriate equations.

[2] = biological target: CRBN/DDB1 protein complex (Homo sapiens, UniProt Q96SW2); assay: CRBN displacement TR-FRET assay; settings: Thalidomide-Red tracer, 6×His-CRBN/DDB1; read-out: CRBN binding Ki
Sequence of CRBN/DDB1 protein complex (Q96SW2 whole entry, species assumed): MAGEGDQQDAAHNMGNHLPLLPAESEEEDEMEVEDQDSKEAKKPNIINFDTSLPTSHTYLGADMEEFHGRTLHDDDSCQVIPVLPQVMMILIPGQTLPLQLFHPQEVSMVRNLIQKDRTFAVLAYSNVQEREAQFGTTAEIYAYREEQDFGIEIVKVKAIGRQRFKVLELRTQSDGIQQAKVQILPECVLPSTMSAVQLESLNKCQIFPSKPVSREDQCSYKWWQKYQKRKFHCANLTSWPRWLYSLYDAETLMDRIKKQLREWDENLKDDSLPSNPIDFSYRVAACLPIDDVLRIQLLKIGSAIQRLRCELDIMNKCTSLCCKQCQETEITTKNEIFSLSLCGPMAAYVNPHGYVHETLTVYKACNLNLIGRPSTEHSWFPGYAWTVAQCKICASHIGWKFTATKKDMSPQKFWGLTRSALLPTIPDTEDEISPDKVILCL
Sequence of CRBN/DDB1 protein complex (Q16531 whole entry partner, species assumed): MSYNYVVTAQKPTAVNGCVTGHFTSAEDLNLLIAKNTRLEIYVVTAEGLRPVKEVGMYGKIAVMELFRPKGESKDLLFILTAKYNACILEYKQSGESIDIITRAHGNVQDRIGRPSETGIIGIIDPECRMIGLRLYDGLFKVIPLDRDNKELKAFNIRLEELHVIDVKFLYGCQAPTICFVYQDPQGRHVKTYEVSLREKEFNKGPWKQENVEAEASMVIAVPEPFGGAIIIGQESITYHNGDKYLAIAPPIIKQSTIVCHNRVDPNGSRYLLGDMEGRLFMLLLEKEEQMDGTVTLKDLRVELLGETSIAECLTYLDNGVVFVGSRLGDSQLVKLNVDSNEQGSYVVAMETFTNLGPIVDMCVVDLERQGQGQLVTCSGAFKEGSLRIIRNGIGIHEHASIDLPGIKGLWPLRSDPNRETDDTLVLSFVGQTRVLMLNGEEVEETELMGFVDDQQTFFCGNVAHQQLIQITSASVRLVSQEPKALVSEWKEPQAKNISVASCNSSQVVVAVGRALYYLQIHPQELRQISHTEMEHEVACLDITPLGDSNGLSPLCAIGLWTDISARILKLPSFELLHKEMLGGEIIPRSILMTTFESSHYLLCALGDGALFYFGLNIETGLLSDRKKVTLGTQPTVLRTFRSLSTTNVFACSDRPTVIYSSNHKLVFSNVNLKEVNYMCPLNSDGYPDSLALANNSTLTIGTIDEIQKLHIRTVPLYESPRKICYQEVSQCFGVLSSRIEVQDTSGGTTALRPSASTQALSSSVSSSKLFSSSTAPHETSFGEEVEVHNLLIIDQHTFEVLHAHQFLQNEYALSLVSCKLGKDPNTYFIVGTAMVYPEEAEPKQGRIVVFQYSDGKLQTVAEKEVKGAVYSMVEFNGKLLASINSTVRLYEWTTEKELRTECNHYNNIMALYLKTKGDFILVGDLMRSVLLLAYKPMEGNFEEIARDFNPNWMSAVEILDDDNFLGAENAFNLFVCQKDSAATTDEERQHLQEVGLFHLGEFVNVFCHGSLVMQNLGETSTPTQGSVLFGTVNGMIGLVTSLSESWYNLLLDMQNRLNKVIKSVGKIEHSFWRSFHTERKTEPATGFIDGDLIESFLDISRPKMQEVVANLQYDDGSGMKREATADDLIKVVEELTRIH
Outline: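 Test compound at various concentrations competed with 6.8 nM Thalidomide-Red tracer for 5 nM 6×His-CRBN/DDB1, detected with 0.5 nM anti-His-Eu cryptate in buffer with 1 mM DTT and 1% DMSO. Incubation ran 180 min at room temperature with a time-resolved fluorescence read-out. IC50 values were converted to Ki by Cheng–Prusoff using tracer Kd and protein and tracer concentrations.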

[3] = biological target: T2, [IKZF1 ZF2]-[compound]-[CRBN/DDB1] ternary complex (Homo sapiens, UniProt Q13422+Q96SW2); assay: AlphaLISA assay for off-target recruitment detection, IKZF1 ZF2; type: binding; settings: 1 μM compound; normalized to Lenalidomide; read-out: Normalized ternary complex response, IKZF1 ZF2
T2 construct: IKZF1 ZF2
T2 sequence (Q13422 145-167 limits assumed): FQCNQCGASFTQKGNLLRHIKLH
T2 sequence (Q96SW2 whole entry): as the sequence (Q96SW2 whole entry, species assumed) above
T2 sequence (Q16531 whole entry partner): as the sequence (Q16531 whole entry partner, species assumed) above
Outline: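 Neo-substrate with 40 μg/ml donor beads and 200 nM 6×His-CRBN/DDB1 with 40 μg/ml anti-His acceptor beads were each prepared in PBS pH 7.4 with Tween-20 and 1 mM DTT, preincubated 30 min at RT, then mixed. Compounds at 2% DMSO were incubated 30 min at 25 °C, read at 680/615 nm, and normalised between DMSO background and reference glue maximum.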

T1 sequence (P15170 whole entry): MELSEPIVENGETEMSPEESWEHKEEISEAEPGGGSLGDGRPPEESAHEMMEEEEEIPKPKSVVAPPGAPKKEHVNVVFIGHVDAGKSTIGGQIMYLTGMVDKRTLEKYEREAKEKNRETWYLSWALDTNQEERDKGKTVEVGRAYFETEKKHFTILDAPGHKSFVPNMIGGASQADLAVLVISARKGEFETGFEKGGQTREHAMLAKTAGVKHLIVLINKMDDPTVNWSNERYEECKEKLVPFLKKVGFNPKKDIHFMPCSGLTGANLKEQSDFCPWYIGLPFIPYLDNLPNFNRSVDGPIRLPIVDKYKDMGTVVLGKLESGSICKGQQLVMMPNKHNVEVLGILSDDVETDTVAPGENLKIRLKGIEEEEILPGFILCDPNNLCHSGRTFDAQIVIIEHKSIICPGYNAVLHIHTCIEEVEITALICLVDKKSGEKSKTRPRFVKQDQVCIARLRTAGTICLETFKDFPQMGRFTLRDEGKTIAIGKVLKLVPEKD
T1 sequence (Q96SW2 whole entry): as the sequence (Q96SW2 whole entry, species assumed) above
T1 sequence (Q16531 whole entry partner): as the sequence (Q16531 whole entry partner, species assumed) above

| Dmax [1] | DC50 [1] | Ki [2] | activation at 1 µM [3] | SMILES |
| --- | --- | --- | --- | --- |
| ≥ 75% | < 10 nM | 500 to 1000 nM | < 10% | Cc1ncc(NC(=O)OCc2ccc3cc(C4CCC(=O)NC4=O)c(C)nc3c2)cc1Cl (centres unmarked) [Compound 58, (3-(2,6-dioxopiperidin-3-yl)-2-methylquinolin-7-yl)methyl (5-chloro-6-methylpyridin-3-yl)carbamate] |
| ≥ 75% | 10 to 50 nM | < 500 nM | < 10% | COc1cnc(NC(=O)OCc2ccc3cc(C4CCC(=O)NC4=O)c(C)nc3c2)cn1 (centres unmarked) [Compound 59, (3-(2,6-dioxopiperidin-3-yl)-2-methylquinolin-7-yl)methyl (5-methoxypyrazin-2-yl)carbamate] |
| ≥ 75% | > 100 nM | < 500 nM | < 10% | Cc1nc2cc(CNC(=O)Nc3cc(C(C)(C)C)no3)ccc2cc1N1CCC(=O)NC1=O [Compound 64, 1-(3-(tert-butyl)isoxazol-5-yl)-3-((3-(2,4-dioxotetrahydropyrimidin-1(2H)-yl)-2-methylquinolin-7-yl)methyl)urea] |
| ≥ 75% | 10 to 50 nM | < 500 nM | 25 to 50% | Cc1nc2ccc(COC(=O)Nc3cc(C(C)(C)C)no3)cc2cc1N1CCC(=O)NC1=O [Compound 66, (3-(2,4-dioxotetrahydropyrimidin-1(2H)-yl)-2-methylquinolin-6-yl)methyl (3-(tert-butyl)isoxazol-5-yl)carbamate] |
| ≥ 75% | 10 to 50 nM | < 500 nM | ≥ 50% | Cc1nc2ccc(CNC(=O)Nc3cc(C(C)(C)C)no3)cc2cc1N1CCC(=O)NC1=O [Compound 67, 1-(3-(tert-butyl)isoxazol-5-yl)-3-((3-(2,4-dioxotetrahydropyrimidin-1(2H)-yl)-2-methylquinolin-6-yl)methyl)urea] |
| ≥ 75% | 50 to 100 nM | > 1000 nM | < 10% | Cc1nc2cc(COC(=O)Nc3cc(C(F)(F)F)no3)ccc2cc1C1CCC(=O)NC1=O (centres unmarked) [Compound 71, (3-(2,6-dioxopiperidin-3-yl)-2-methylquinolin-7-yl)methyl (3-(trifluoromethyl)isoxazol-5-yl)carbamate] |
| ≥ 75% | 10 to 50 nM | 500 to 1000 nM | < 10% | Cc1nc2cc(COC(=O)Nc3cc(C(C)(C)C)no3)ccc2cc1N1CCC(=O)NC1=O [Compound 72, (3-(2,4-dioxotetrahydropyrimidin-1(2H)-yl)-2-methylquinolin-7-yl)methyl (3-(tert-butyl)isoxazol-5-yl)carbamate] |
| ≥ 75% | > 100 nM | > 1000 nM | < 10% | Cc1ccc(NC(=O)OCc2ccc3cc(C4(F)CCC(=O)NC4=O)c(C)nc3c2)cc1Cl (centres unmarked) [Compound 74, (3-(3-fluoro-2,6-dioxopiperidin-3-yl)-2-methylquinolin-7-yl)methyl (3-chloro-4-methylphenyl)carbamate] |

| SMILES | Dmax [1] | DC50 [1] | Ki [2] | activation at 1 µM [3] |
| --- | --- | --- | --- | --- |
| Cc1nc2cc(COC(=O)Nc3cc(C(F)(F)F)n[nH]3)ccc2cc1C1CCC(=O)NC1=O (centres unmarked) [Compound 69, (3-(2,6-dioxopiperidin-3-yl)-2-methylquinolin-7-yl)methyl (3-(trifluoromethyl)-1H-pyrazol-5-yl)carbamate] | ≥ 75% | 10 to 50 nM | > 1000 nM | < 10% |
| Cc1nc2cc(COC(=O)Nc3cc(C(C)(C)C)on3)ccc2cc1C1CCC(=O)NC1=O (centres unmarked) [Compound 70, (3-(2,6-dioxopiperidin-3-yl)-2-methylquinolin-7-yl)methyl (5-(tert-butyl)isoxazol-3-yl)carbamate] | ≥ 75% | < 10 nM | < 500 nM | < 10% |
| Cc1nc2cc(COC(=O)Nc3cc(C(C)(C)C)n[nH]3)ccc2cc1C1CCC(=O)NC1=O (centres unmarked) [Compound 75, (3-(2,6-dioxopiperidin-3-yl)-2-methylquinolin-7-yl)methyl (3-(tert-butyl)-1H-pyrazol-5-yl)carbamate] | ≥ 75% | 10 to 50 nM | > 1000 nM | < 10% |

— patent US20260232682A1, “GSPT1 DEGRADER COMPOUNDS” (Captor Therapeutics S.A., priority 2023, published 2026)
